Source: article PMC10594211, “Characterization of pyridylpiperazine-based efflux pump inhibitors for Acinetobacter baumannii” (JAC-Antimicrobial Resistance, 2023)

Columns and labels:
[1] = molecular target: T1, AcrB (AcrAB-TolC) (Escherichia coli, UniProt P31224); assay: antibiotic boosting in E. coli cells; format: cell-based
T1 construct: full-length RND pump in E. coli cells; strain only in supplement; with Multidrug efflux pump subunit AcrA; Outer membrane protein TolC

[2] = molecular target: T2, AdeFGH (AdeG) (Acinetobacter baumannii, UniProt A0A090C131); assay: antibiotic MIC in E. coli ΔacrAB expressing adeFGH (REMA); format: cell-based, Escherichia coli ΔacrAB; settings: 40 µM EPI; chloramphenicol, oxacillin, SDS
T2 construct: adeFGH operon under acrA promoter in chromosome of E. coli ΔacrAB; tripartite RND pump; with Membrane fusion protein AdeF; Outer membrane efflux protein AdeH
T2 sequence (A0A090C131 entry or part of it): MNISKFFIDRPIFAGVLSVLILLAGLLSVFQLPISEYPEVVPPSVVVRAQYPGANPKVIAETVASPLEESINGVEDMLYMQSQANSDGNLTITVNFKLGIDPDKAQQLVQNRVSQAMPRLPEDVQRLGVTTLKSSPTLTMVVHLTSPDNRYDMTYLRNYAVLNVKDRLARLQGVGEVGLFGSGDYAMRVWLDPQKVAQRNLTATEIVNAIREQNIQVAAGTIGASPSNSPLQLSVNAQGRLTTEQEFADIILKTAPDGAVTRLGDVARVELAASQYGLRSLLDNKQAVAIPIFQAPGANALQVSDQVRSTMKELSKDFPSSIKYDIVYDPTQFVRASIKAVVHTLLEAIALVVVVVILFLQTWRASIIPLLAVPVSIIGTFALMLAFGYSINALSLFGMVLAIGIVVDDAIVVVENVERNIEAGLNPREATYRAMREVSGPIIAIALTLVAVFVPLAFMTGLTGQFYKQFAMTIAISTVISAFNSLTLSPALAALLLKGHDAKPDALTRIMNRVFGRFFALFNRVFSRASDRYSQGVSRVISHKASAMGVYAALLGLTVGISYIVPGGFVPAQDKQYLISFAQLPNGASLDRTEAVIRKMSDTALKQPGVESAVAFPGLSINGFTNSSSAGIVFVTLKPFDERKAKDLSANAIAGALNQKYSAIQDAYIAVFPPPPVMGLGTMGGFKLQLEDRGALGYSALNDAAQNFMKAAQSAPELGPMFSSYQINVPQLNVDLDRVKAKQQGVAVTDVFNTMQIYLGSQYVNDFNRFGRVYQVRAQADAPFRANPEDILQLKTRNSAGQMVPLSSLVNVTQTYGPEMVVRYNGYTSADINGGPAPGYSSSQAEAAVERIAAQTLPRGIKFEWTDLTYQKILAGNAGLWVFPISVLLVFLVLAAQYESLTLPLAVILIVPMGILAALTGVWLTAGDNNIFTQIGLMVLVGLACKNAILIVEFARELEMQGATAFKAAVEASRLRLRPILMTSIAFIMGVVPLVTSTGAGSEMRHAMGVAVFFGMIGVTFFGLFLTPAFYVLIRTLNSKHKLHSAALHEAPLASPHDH
T2 sequence (A0A0N9Q906 entry or part of it, further chain): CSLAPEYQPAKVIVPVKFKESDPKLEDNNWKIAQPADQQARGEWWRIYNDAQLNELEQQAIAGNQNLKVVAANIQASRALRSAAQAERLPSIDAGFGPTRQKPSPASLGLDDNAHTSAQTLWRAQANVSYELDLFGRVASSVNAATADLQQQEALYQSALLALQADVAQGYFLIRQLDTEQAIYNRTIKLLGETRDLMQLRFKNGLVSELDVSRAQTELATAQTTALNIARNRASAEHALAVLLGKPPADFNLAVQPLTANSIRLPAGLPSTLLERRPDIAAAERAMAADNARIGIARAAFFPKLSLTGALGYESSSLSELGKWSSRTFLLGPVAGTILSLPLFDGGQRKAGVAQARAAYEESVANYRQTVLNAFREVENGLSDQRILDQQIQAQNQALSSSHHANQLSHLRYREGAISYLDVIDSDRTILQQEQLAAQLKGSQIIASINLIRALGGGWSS
T2 sequence (A0A0N9QP12 entry or part of it, further chain): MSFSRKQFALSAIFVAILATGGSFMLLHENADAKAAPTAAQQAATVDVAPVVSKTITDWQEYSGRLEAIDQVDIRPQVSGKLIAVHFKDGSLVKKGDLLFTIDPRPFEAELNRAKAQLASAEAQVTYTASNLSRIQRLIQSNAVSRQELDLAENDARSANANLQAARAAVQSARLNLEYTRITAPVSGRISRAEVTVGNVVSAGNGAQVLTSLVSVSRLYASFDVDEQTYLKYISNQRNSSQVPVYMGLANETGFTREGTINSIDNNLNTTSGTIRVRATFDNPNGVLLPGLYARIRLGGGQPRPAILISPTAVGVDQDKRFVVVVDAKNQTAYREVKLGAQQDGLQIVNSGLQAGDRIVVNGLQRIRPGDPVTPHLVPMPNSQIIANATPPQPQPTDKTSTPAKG

[3] = molecular target: T3, AdeJ (Acinetobacter baumannii, UniProt Q2FD94); assay: antibiotic MIC and checkerboard in A. baumannii cells; format: cell-based; settings: 40 µM EPI
T3 construct: native chromosomal AdeJ in A. baumannii cells (other RND pumps present); isogenic point mutants by allelic exchange; with Membrane fusion protein AdeI; Outer membrane efflux protein AdeK

[4] = molecular target: T4, AdeIJK (AdeJ) (Acinetobacter baumannii, UniProt Q2FD94); assay: antibiotic MIC in E. coli ΔacrAB expressing adeIJK (REMA); format: cell-based, Escherichia coli; settings: 40 µM EPI; fusidic acid, novobiocin, erythromycin, SDS
T4 construct: adeIJK operon under acrA promoter in chromosome of E. coli ΔacrAB; tripartite RND pump; with Membrane fusion protein AdeI; Outer membrane efflux protein AdeK

T1 sequence (P0AE06 25-397): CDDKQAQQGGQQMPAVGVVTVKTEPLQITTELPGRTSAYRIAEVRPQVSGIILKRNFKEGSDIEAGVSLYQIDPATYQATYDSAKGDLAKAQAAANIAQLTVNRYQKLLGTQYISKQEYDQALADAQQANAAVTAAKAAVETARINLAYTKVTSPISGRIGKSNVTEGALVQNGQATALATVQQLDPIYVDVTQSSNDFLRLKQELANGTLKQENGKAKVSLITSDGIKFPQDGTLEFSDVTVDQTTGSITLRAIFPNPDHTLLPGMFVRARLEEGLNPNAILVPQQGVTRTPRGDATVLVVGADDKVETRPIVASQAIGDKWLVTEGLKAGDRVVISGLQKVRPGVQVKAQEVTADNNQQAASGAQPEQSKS
T1 sequence (P02930 23-493, further chain): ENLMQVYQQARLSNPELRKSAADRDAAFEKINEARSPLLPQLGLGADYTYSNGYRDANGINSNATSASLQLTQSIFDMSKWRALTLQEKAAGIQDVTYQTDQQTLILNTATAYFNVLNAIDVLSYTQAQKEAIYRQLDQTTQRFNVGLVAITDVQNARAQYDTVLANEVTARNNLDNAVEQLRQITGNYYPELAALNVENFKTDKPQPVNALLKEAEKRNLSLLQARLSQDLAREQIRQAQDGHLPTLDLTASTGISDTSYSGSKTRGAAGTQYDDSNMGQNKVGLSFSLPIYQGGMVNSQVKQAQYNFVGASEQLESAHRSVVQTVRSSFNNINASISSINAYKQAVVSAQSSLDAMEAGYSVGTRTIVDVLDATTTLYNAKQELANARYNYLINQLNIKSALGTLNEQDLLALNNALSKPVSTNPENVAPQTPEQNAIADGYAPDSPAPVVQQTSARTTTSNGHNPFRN
T1 sequence (P31224 whole entry): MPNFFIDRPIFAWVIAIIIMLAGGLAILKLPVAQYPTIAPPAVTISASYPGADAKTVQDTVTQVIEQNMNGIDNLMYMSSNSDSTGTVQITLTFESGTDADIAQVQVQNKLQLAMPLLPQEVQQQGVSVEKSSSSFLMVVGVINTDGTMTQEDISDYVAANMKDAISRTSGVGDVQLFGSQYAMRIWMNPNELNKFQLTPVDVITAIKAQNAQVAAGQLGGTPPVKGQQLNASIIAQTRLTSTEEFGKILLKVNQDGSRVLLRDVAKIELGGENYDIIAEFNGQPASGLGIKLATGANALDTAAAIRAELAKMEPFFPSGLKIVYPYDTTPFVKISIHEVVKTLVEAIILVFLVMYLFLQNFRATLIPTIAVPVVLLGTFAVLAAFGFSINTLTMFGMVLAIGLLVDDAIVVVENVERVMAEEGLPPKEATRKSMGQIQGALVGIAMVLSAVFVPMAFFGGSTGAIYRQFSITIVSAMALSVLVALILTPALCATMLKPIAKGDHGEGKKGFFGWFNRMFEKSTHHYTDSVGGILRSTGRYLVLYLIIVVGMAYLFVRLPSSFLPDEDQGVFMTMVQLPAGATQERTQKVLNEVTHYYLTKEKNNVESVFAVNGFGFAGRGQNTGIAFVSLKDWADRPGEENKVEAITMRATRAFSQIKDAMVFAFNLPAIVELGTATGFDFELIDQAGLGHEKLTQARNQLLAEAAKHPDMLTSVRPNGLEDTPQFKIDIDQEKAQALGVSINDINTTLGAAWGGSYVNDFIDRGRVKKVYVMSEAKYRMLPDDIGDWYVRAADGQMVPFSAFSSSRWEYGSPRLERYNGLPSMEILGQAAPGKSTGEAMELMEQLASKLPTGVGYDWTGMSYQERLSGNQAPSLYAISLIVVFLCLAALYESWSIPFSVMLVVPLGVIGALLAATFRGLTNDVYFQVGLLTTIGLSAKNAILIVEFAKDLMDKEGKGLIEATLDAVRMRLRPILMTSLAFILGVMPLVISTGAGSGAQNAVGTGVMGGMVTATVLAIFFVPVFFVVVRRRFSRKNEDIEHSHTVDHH

## NCCc1ccccc1C#Cc1cnc(N2CCNCC2)c(Cl)c1 [compound 11, BDM91892]
[1]
  EC90: 1500 nM
[2]
  MIC: both BDM91531 and BDM91892 can inhibit the activity of AdeFGH and AdeIJK
[3]
  MIC: antibiotic boosting in A. baumannii by BDM91531, BDM91892 or PAβN is through AdeIJK inhibition
[4]
  MIC: both BDM91531 and BDM91892 can inhibit the activity of AdeFGH and AdeIJK

## NCc1cccc(-c2ccc3nc(N4CCNCC4)c(Cl)cc3c2)c1 [compound 1, BDM91531]
[1]
  EC90: 240 nM
[2]
  MIC: both BDM91531 and BDM91892 can inhibit the activity of AdeFGH and AdeIJK
[3]
  MIC: antibiotic boosting in A. baumannii by BDM91531, BDM91892 or PAβN is through AdeIJK inhibition
[4]
  MIC: both BDM91531 and BDM91892 can inhibit the activity of AdeFGH and AdeIJK
